These results are taken from patent publication US9394297B2, “Amides as pim inhibitors” (AMGEN INC., priority 2012, dated 2016).

Like-named read-outs stand apart in the source and are kept apart here.

The subject of assay [1] is KMS-12-BM cell lines. Briefly: KMS12 #2 flow cytometry assay (phospho-BAD Ser112). It counts as cell-based. As to conditions: Homo sapiens, 110 min, read-out: KMS-12-Flow IC50 IP. For orientation: In flow cytometry, cells or beads pass a laser one at a time.
The target of assay [2] is Pim-2 (Homo sapiens (Human), UniProt Q9P1W9). Description: Pim-Mn enzyme assay (HTRF, 384-well), Pim-2. It counts as biochemical. As to conditions: Pim-2 enzyme 0.5 pM, ATP 1.5 μM, BAD (S112) 0.5 μM, HTRF, 22-point curve; read-out: Pim-2-Mn IC50 IP. Background: In TR-FRET formats the signal depends on donor and acceptor labels being close together.
Pim-2, sequence (Q9P1W9 whole entry): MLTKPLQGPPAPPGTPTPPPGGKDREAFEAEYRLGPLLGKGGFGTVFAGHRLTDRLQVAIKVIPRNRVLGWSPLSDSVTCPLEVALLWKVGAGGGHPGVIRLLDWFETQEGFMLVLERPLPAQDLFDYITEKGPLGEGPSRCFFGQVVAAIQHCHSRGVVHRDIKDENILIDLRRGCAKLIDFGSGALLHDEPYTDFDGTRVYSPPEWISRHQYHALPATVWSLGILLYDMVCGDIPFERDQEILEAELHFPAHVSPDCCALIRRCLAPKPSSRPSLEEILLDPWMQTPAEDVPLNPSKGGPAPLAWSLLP
Assay [3] deals with Pim-1 (Homo sapiens (Human), UniProt P11309). Briefly: Pim-Mn enzyme assay (HTRF, 384-well), Pim-1. It counts as biochemical. As to conditions: Pim-1 enzyme 5 pM, ATP 1.5 μM, BAD (S112) 0.5 μM, HTRF, 22-point curve; read-out: Pim-1-Mn IC50 IP.
Pim-1, sequence (P11309 whole entry): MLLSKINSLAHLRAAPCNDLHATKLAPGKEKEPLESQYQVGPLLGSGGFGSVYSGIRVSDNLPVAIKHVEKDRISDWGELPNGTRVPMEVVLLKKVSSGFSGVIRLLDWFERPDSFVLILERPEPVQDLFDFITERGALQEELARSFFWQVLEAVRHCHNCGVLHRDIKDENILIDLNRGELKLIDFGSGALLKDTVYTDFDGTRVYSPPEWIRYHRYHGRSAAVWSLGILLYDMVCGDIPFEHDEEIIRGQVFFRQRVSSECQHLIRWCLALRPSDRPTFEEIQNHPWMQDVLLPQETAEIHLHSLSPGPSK
[4] abbreviates: KMS-12-BM cells, pBAD Ser112 by flow cytometry, 110 min with compound.

`Cc1nc2cccc(-c3cc4c([nH]3)CCNC4=O)c2nc1N[C@H]1C[C@@H](NCC(F)(F)F)C1` [Example 444]: the IC50 in assay [1] (setting [4]) came out at 471 nM. For `CC(C)(C)Nc1ccc2cccc(-c3cc4c([nH]3)CCNC4=O)c2n1` [Example 340, 2-(2-(tert-butylamino)-8-quinolinyl)-1,5,6,7-tetrahydro-4H-pyrrolo[3,2-c]pyridin-4-one], the IC50 in assay [1] (setting [4]) was 595 nM.

Turning to `Cc1nc2cccc(-c3cc4c([nH]3)CCN/C4=N\O)c2nc1NC(C)(C)C` [Example 300, (E/Z)-2-(3-(tert-butylamino)-2-methylquinoxalin-5-yl)-6,7-dihydro-1H-pyrrolo[3,2-c]pyridin-4(5H)-one oxime], the IC50 in assay [1] (setting [4]) was more than 10000 nM. On to `Cn1c(NC(C)(C)C)nc2c(-c3cc4n(c3)CCNC4=O)cccc2c1=O` [Example 449, 2-(tert-butylamino)-3-methyl-8-(1-oxo-1,2,3,4-tetrahydropyrrolo[1,2-a]pyrazin-7-yl)-4(3H)-quinazolinone], for which the IC50 in assay [1] (setting [4]) amounted to 429 nM. Regarding `Cc1nc2ccc(F)c(-c3cc4c([nH]3)[C@@H](C)NC4=O)c2nc1NC(C)(C)C` [Example 297, (6R)-2-(3-(tert-butylamino)-6-fluoro-2-methyl-5-quinoxalinyl)-6-methyl-5,6-dihydropyrrolo[3,4-b]pyrrol-4(1H)-one], the IC50 in assay [1] (setting [4]) came out at 28.4 nM.

Take `CCn1c(NC(C)(C)C)nc2c(-c3cc4c([nH]3)[C@@H](C)NC4=O)cccc2c1=O` [Example 481, (R)-2-(tert-butylamino)-3-ethyl-8-(6-methyl-4-oxo-1,4,5,6-tetrahydropyrrolo[3,4-b]pyrrol-2-yl)quinazolin-4(3H)-one]: in assay [1] (KMS-12-BM), the half-maximal inhibitory concentration (IC50) came to 20 nM.

Turning to `Cc1nc2cccc(-c3cc4c([nH]3)CCNC4=O)c2nc1-c1cccnc1Cl` [Example 410, 2-(3-(2-chloro-3-pyridinyl)-2-methyl-5-quinoxalinyl)-1,5,6,7-tetrahydro-4H-pyrrolo[3,2-c]pyridin-4-one], in assay [1] (setting [4]), the IC50 was 21700 nM. For the molecule `Cc1nc2cccc(-c3cc4c([nH]3)CCNC4=O)c2nc1-c1ccc(N)cc1Cl` [Example 413, 2-(3-(4-amino-2-chlorophenyl)-2-methyl-5-quinoxalinyl)-1,5,6,7-tetrahydro-4H-pyrrolo[3,2-c]pyridin-4-one], in assay [1] (setting [4]), the IC50 was more than 40000 nM. For the molecule `Cc1nc2cccc(-c3cc4c([nH]3)CCNC4=O)c2nc1-c1cnccc1Cl` [Example 412, 2-(3-(4-chloro-3-pyridinyl)-2-methyl-5-quinoxalinyl)-1,5,6,7-tetrahydro-4H-pyrrolo[3,2-c]pyridin-4-one], the IC50 in assay [1] (setting [4]) was found to be 21800 nM. Still for that read-out and setting: next, `Cn1c(NC(C)(C)C)nc2c(-c3cc4c([nH]3)CNC4=O)cccc2c1=O` [Example 419, 2-(tert-butylamino)-3-methyl-8-(4-oxo-1,4,5,6-tetrahydropyrrolo[3,4-b]pyrrol-2-yl)-4(3H)-quinazolinone]: 48.3 nM.

As for `Cc1nc2cccc(-c3cc4c([nH]3)C(CO)NC4=O)c2nc1NC(C)(C)C` (racemic) [Example 469, (R)-2-(3-(tert-butylamino)-2-methylquinoxalin-5-yl)-6-(hydroxymethyl)-5,6-dihydropyrrolo[3,4-b]pyrrol-4(1H)-one and (S)-2-(3-(tert-butylamino)-2-methylquinoxalin-5-yl)-6-(hydroxymethyl)-5,6-dihydropyrrolo[3,4-b]pyrrol-4(1H)-one], the IC50 in assay [1] (setting [4]) was 119 nM. Turning to `Cc1nc2cccc(-c3cc4c([nH]3)CCNC4=O)c2nc1-c1c(F)cccc1Cl` [Example 414, 2-(3-(2-chloro-6-fluorophenyl)-2-methyl-5-quinoxalinyl)-1,5,6,7-tetrahydro-4H-pyrrolo[3,2-c]pyridin-4-one], the IC50 in assay [1] (setting [4]) worked out at 5860 nM. Take `Cc1nc2cccc(-c3cc4c([nH]3)[C@H](C)NC4=O)c2nc1NCC(F)F` [Example 383, (S)-2-(3-((2,2-difluoroethyl)amino)-2-methylquinoxalin-5-yl)-6-methyl-5,6-dihydropyrrolo[3,4-b]pyrrol-4(1H)-one]: the IC50 in assay [1] (setting [4]) was determined as 445 nM. On to `C[C@H]1NC(=O)c2cc(-c3cccc4c(=O)n(CC(F)(F)F)c(NC(C)(C)C)nc34)[nH]c21` [Example 501, 2-(tert-butylamino)-8-((6R)-6-methyl-4-oxo-1,4,5,6-tetrahydropyrrolo[3,4-b]pyrrol-2-yl)-3-(2,2,2-trifluoroethyl)-4(3H)-quinazolinone], for which the IC50 in assay [2] came out at 0.19 nM; in assay [3], 0.16 nM. Consider `Cc1nc2cccc(-c3cc4c([nH]3)CCNC4=O)c2nc1N[C@@H]1CCN(C(=O)OC(C)(C)C)C1` [Example 48, tert-butyl (3R)-3-((3-methyl-8-(4-oxo-4,5,6,7-tetrahydro-1H-pyrrolo[3,2-c]pyridin-2-yl)-2-quinoxalinyl)amino)-1-pyrrolidinecarboxylate], for which the results for the IC50 in assay [2] and in assay [3] were 116 nM and 26.2 nM, respectively. On to `Cc1nc2cccc(-c3cc4c([nH]3)CCNC4=O)c2nc1NC(C)(C)C(=O)O` [Example 60, 2-methyl-N-(3-methyl-8-(4-oxo-4,5,6,7-tetrahydro-1H-pyrrolo[3,2-c]pyridin-2-yl)-2-quinoxalinyl)alanine], for which the concentration for half-maximal inhibition (IC50) came out at 191 nM in assay [2] and 300 nM in assay [3]. For `Cc1nc2cccc(-c3cc4c([nH]3)C[C@@H](C)NC4=O)c2nc1NC(C)(C)C` [Example 289, (6R)-2-(3-(tert-butylamino)-2-methyl-5-quinoxalinyl)-6-methyl-1,5,6,7-tetrahydro-4H-pyrrolo[3,2-c]pyridin-4-one], the IC50 in assay [2] was 3.37 nM; in assay [3] it was 2.69 nM. Take `CC(=O)N1CCC[C@H](Nc2nc3c(-c4cc5c([nH]4)CCNC5=O)cccc3nc2C)C1` [Example 242, 2-(3-(((3S)-1-acetyl-3-piperidinyl)amino)-2-methyl-5-quinoxalinyl)-1,5,6,7-tetrahydro-4H-pyrrolo[3,2-c]pyridin-4-one]: the results for the IC50 in assay [2] and in assay [3] were 137 nM and 129 nM, respectively. For the molecule `CC(=O)N[C@@H]1CCC[C@H](Nc2nc3c(-c4cc5c([nH]4)[C@@H](C)NC5=O)cccc3nc2C)C1` [Example 486, N-((1R,3S)-3-((3-methyl-8-((6R)-6-methyl-4-oxo-1,4,5,6-tetrahydropyrrolo[3,4-b]pyrrol-2-yl)-2-quinoxalinyl)amino)cyclohexyl)acetamide], the results for the IC50 in assay [2] and in assay [3] were 2.38 nM and 1.73 nM, respectively.

For `Cc1nc2cccc(-c3cc4c([nH]3)CCNC4=O)c2nc1N[C@@H](C)C(F)(F)F` [Example 255, (S)-2-(2-methyl-3-((1,1,1-trifluoropropan-2-yl)amino)quinoxalin-5-yl)-6,7-dihydro-1H-pyrrolo[3,2-c]pyridin-4(5H)-one], the figures for the IC50 in assay [2] and in assay [3] were 27.2 nM and 28.3 nM, respectively.

In the case of `Cc1nc2cccc(-c3cc4c([nH]3)CCNC4=O)c2nc1N[C@H]1C[C@@H](NCCF)C1` [Example 477, 2-(3-(((1s,3s)-3-((2-fluoroethyl)amino)cyclobutyl)amino)-2-methylquinoxalin-5-yl)-6,7-dihydro-1H-pyrrolo[3,2-c]pyridin-4(5H)-one], the IC50 in assay [2] and in assay [3] was 1 nM each time.

As for `Cc1nc2cccc(-c3cc4c([nH]3)C(C)CNC4=O)c2nc1NC1CC1` (single isomer, unassigned) [Example 160, 2-(3-(cyclopropylamino)-2-methylquinoxalin-5-yl)-7-methyl-6,7-dihydro-1H-pyrrolo[3,2-c]pyridin-4(5H)-one], the IC50 in assay [2] was determined as 0.5 nM; in assay [3] it was 1 nM.

A word on the IC50: it is the concentration that gives 50% inhibition.
